# From paper PMC11243149, “Assessing the Effects of Thiazole-Carboxamide Derivatives on the Biophysical Properties of AMPA Receptor Complexes as a Potential Neuroprotective Agent” (Molecules, 2024)
# pIC50: −log10 of the molar value. Read-outs that look alike come from different tables or passages of the source.
# Assays:
# Format in all cases: cell-based
# GluA1 = target: T1, GluA1 (Homo sapiens, UniProt P42261); test: Whole-cell patch-clamp recordings of homomeric GluA1 AMPAR in transfected HEK293T cells; details: GluA1; for Amplitude (glutamate plus TC compound): 10 mM glutamate + TC compound (12 µM optimal concentration), HEK293T, -60 mV, pH 7.4, 22 °C, mean ± SEM; for pIC50: read-out: IC50; for IC50: Table S6, read-out: Log IC50 (converted); for t deact: weighted tau of deactivation, 10 mM glutamate for 1 ms, glutamate alone 2.1±0.1; for t deact / t des: with TC compound; for t des: weighted tau of desensitization, 10 mM glutamate 500 ms, glutamate alone 2.5±0.1
# T1 construct: expressed in transfected cells; host or cells: HEK293T
# T1 sequence (P42261 19-906 isoform P42261-2 limits assumed, species assumed): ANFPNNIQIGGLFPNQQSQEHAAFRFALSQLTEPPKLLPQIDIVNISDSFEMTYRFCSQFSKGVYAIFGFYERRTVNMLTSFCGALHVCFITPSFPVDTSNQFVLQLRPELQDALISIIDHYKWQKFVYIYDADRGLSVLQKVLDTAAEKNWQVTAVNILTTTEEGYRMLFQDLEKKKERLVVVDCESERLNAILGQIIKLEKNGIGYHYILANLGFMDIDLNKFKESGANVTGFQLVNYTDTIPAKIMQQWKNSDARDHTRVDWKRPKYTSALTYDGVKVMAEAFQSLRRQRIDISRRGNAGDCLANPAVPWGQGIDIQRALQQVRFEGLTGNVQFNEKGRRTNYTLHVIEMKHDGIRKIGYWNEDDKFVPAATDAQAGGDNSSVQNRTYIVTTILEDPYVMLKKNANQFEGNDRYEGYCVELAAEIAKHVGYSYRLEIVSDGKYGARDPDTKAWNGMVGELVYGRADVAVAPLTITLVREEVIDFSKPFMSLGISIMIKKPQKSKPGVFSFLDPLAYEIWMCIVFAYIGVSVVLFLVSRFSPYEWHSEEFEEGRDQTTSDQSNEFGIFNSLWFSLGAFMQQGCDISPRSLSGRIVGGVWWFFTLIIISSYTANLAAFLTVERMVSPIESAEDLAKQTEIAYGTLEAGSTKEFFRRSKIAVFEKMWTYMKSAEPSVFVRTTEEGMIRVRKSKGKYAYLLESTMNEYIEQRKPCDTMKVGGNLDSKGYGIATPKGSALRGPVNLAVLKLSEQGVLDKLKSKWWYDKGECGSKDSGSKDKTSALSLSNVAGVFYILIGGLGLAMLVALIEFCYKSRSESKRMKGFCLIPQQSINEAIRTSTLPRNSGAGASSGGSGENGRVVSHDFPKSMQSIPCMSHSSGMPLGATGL
# Protocol: (§1) The effect of five TC compounds on whole-cell currents of four AMPAR subunits (GluA1, GluA1/2, GluA2, and GluA2/3) was investigated using transfected HEK293T cells. Each compound was applied separately to each subunit, with experiments conducted on 8–10 cells per condition to ensure reproducibility. […] At a glutamate concentration of 10 mM and a 500 ms protocol, approximately 95% of AMPAR channels were open. The A/AI ratio was calculated to compare the results, where A represents normalized current readings and AI indicates the inhibited current following TC compound exposure. […] Following closely, TC-1 inhibited the tested subunits by 5-fold.
# (§2) The IC50 values were examined using GraphPad Prism software 9.5.0.730 (x64) (Table S6), which confirmed these findings. The IC50 values of TC substances were calculated by standardizing the peak current amplitudes using data obtained from 8–10 cells. Following a 500 ms exposure to the compounds, the cells were rinsed with glutamate for 20 s. Next, a solution containing just glutamate at a concentration of 10 mM was administered, and the resulting immediate induced electrical current was measured and documented (Figure 3).
# (§3) In addition, an evaluation was conducted on the deactivation rates (τw deact) of all the examined chemicals to investigate their impact on the kinetics of deactivation. The chemicals were assessed for their effect on the deactivation kinetics of AMPAR subunits by briefly administering 10 mM glutamate for 1 ms to begin currents. This experimental setup allowed for the observation of τw deact under controlled conditions. […] TC-5 induced an approximately 2-fold increase in τw deact across all four tested subunits. […] These findings highlight the differential impact of TC compounds on deactivation kinetics across AMPAR subunits, shedding light on their potential neuroprotective mechanisms.
# (§4) The flip isoform was uniformly employed across all AMPAR subunits in this study. These subunits were subcloned into the pRK vector and expressed in Human Embryonic kidney cells sourced (Sigma, München, Germany). HEK293T cells were grown in Dulbecco Modified Eagle Medium (DMEM) (Sigma, München, Germany) containing 10% FBS (fetal bovine serum), 0.1 mg/mL streptomycin, and 1 mM sodium pyruvate (Biological Industries; Beit-Haemek, Israel). HEK293T cells were incubated at 37 °C and 5% CO2 was supplemented to the medium. It was subcultured twice a week until cells reached pass #20. The transfection reagent used was either jetPRIME (Polyplus: New York, NY, USA) or Lipofectamine 2000 (Invitrogen; San Diego, CA, USA). Cells were kept for 36 h. after transfection in 12-well plates. Then, they were replated on coverslips coated with Laminin (1 mg/mL; Sigma, Germany) for electrophysiology recordings. Cells were then seeded in Petri dishes in DMEM supplemented with 10% fetal calf serum and antibiotics and maintained in a humidified incubator at 37 °C and 5% CO2. Highly fluorescent cells were identified and selected for recording post-transfection.
# (§5) HEK293T cells were recorded for 36–48 h, at a temperature of 22 °C, with a membrane potential of −60 mV. HEK293T cells were recorded 36–48 h after transfection using IPA (Integrated Patch Amplifier) via the […], at a temperature of 22 °C, with a membrane potential of −60 mV. SutterPatch Software v. 1.1.1 (Sutter Instruments, Novato, CA, USA) was used to digitize membrane currents for a short period. The sampling frequency was set to 10 kHz, and the low-pass filter was set to 2 kHz. Borosilicate glass was used to fabricate the patch electrodes with a resistance of 2–4 MΩ. The extracellular solution contained the following (values are in mM): 150 NaCl, 2.8 KCl, 0.5 MgCl2, 2 CaCl2, and 10 HEPES, adjusted to pH 7.4 with NaOH. The pipette solution contained the following (values are in mM): 110 CsF, 30 CsCl, 4 NaCl, 0.5 CaCl2, 10 […], and 10 HEPES, adjusted to pH 7.2 with CsOH. […]
# GluA1/2 = target: T2, GluA1/2 (Homo sapiens, UniProt P42261+P42262); test: Whole-cell patch-clamp recordings of heteromeric GluA1/2 AMPAR in transfected HEK293T cells; details: for Amplitude (glutamate plus TC compound): 10 mM glutamate + TC compound (12 µM optimal concentration), HEK293T, -60 mV, pH 7.4, 22 °C, mean ± SEM; for Amplitude (glutamate plus TC compound) / Amplitude, applying glutamate alone after TC compound: n = 10; for Amplitude, applying glutamate alone after TC compound: 10 mM glutamate alone after 20 s wash following the TC compound; for pIC50: read-out: IC50; for IC50: Table S6, read-out: Log IC50 (converted); for A/AI: ratio of current with glutamate alone (A) to inhibited current after TC compound (AI); for t deact: weighted tau of deactivation, 10 mM glutamate for 1 ms, glutamate alone 2.5±0.3; for t deact / t des: with TC compound; for t des: weighted tau of desensitization, 10 mM glutamate 500 ms, glutamate alone 5.2±0.5
# T2 construct: expressed in transfected cells; host or cells: HEK293T
# T2 sequence (P42261 19-906 isoform P42261-2 limits assumed): as the sequence (P42261 19-906 isoform P42261-2 limits assumed, species assumed) above
# T2 sequence (P42262 25-883 isoform P42262-2 limits assumed): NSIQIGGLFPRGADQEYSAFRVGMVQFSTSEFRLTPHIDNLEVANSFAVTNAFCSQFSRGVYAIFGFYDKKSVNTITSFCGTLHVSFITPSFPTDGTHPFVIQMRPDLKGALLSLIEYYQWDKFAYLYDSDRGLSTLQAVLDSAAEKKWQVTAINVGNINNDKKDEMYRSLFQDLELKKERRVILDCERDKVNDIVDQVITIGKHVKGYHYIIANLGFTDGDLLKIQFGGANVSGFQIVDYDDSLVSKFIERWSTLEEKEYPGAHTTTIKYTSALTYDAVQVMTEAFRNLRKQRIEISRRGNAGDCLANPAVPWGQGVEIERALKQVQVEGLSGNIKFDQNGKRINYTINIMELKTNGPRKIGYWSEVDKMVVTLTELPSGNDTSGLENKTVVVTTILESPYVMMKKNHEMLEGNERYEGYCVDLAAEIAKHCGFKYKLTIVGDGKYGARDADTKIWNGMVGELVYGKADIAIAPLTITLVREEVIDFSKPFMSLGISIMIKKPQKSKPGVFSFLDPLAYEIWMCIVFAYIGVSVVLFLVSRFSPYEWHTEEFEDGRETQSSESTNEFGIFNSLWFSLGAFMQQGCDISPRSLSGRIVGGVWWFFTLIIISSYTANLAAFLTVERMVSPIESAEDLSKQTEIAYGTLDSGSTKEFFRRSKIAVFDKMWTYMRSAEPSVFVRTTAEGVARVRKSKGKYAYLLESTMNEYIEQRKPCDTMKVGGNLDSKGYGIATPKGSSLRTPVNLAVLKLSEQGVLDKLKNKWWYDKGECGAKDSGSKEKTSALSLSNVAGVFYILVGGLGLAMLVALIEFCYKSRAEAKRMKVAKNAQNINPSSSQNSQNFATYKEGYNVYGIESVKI
# Protocol: as §1, §2, §3, §4, §5
# GluA2 = target: T3, GluA2 (Homo sapiens, UniProt P42262); test: Whole-cell patch-clamp recordings of homomeric GluA2 AMPAR in transfected HEK293T cells; details: for Amplitude (glutamate plus TC compound): 10 mM glutamate + TC compound (12 µM optimal concentration), HEK293T, -60 mV, pH 7.4, 22 °C, mean ± SEM; for Amplitude (glutamate plus TC compound) / Amplitude, applying glutamate alone after TC compound: n = 10; for Amplitude, applying glutamate alone after TC compound: 10 mM glutamate alone after 20 s wash following the TC compound; for IC50: Table S6, read-out: Log IC50 (converted); for pIC50: read-out: IC50; for t deact: weighted tau of deactivation, 10 mM glutamate for 1 ms, glutamate alone 2.3±0.1; for t deact / t des: with TC compound; for t des: weighted tau of desensitization, 10 mM glutamate 500 ms, glutamate alone 2.6±0.1
# T3 construct: expressed in transfected cells; host or cells: HEK293T
# T3 sequence (P42262 25-883 isoform P42262-2 limits assumed, species assumed): as the sequence (P42262 25-883 isoform P42262-2 limits assumed) above
# Protocol: as §1, §2, §3, §4, §5
# GluA2/3 = target: T4, GluA2/3 (Homo sapiens, UniProt P42262+P42263); test: Whole-cell patch-clamp recordings of heteromeric GluA2/3 AMPAR in transfected HEK293T cells; details: for Amplitude (glutamate plus TC compound): 10 mM glutamate + TC compound (12 µM optimal concentration), HEK293T, -60 mV, pH 7.4, 22 °C, mean ± SEM; for Amplitude (glutamate plus TC compound) / Amplitude, applying glutamate alone after TC compound: n = 10; for Amplitude, applying glutamate alone after TC compound: 10 mM glutamate alone after 20 s wash following the TC compound; for pIC50: read-out: IC50; for IC50: Table S6, read-out: Log IC50 (converted); for A/AI: ratio of current with glutamate alone (A) to inhibited current after TC compound (AI); for t deact: weighted tau of deactivation, 10 mM glutamate for 1 ms, glutamate alone 2.6±0.3; for t deact / t des: with TC compound; for t des: weighted tau of desensitization, 10 mM glutamate 500 ms, glutamate alone 2.7±0.2
# T4 construct: expressed in transfected cells; host or cells: HEK293T
# T4 sequence (P42262 25-883 isoform P42262-2 limits assumed): as above
# T4 sequence (P42263 29-894 isoform P42263-2 limits assumed): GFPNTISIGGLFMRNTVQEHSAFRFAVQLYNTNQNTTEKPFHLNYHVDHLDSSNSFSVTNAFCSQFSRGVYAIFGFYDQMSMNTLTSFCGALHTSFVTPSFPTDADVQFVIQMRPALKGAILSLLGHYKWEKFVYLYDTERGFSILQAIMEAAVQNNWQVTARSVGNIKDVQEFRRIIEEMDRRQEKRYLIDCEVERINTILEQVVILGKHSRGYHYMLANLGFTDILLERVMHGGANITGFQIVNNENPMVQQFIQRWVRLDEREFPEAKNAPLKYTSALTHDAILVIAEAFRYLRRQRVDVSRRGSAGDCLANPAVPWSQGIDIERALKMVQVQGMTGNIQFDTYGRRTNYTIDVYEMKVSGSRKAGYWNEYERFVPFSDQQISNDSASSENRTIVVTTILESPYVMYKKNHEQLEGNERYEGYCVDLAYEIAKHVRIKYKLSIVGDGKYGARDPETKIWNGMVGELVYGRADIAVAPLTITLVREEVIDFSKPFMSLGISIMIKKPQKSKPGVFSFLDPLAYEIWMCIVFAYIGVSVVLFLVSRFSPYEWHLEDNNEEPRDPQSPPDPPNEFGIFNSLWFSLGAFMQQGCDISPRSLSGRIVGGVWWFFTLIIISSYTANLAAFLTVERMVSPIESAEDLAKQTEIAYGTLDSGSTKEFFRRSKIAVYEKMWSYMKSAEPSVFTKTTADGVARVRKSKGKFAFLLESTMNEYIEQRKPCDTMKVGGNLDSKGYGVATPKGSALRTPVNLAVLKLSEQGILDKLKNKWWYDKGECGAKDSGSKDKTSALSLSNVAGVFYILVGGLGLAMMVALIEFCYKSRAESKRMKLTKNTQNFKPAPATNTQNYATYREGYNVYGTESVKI
# Protocol: as §1, §2, §3, §4, §5
# [1] = test system: AMPAR subunits (GluA1, GluA1/2, GluA2, and GluA2/3); test: Whole-cell patch-clamp recordings, statements over all tested AMPAR subunits; details: for reduction in τw des: across all examined subunits; for increase in τw deact / decrease in AMPAR subunit activity (inhibition of the whole-cell current): all tested subunits; for increase in τw deact: 10 mM glutamate for 1 ms; for decrease in AMPAR subunit activity (inhibition of the whole-cell current): 10 mM glutamate, 500 ms protocol
# Protocol: as §1
# A thorough investigation was performed to assess the neuroprotective potential of the TC compounds. The influence of the five TC compounds on the desensitization traces is seen in Figure 4, namely in panels b, d, f, and h. TC-2 caused a substantial reduction in τw des in all receptor subunits, with decreases ranging from 2 to 3 times.
# as §3, §4
# as §5, with “CsOH. Using double barrel glass (theta tube), glutamate and the solutions of choice were rapidly administered, and the theta tube was mounted on a high-speed piezo solution switcher (Automate Scientific, Berkeley, CA, USA).” for “CsOH.”
# [2] = Table S6, peak current amplitudes, 8-10 cells, GraphPad Prism fit
# [3] = ratio of current with glutamate alone (A) to inhibited current after TC compound (AI)
SMILES,Amplitude (glutamate plus TC compound) (GluA1; n = 10) [pA],IC50 (GluA1) [µM],t deact (GluA1) [ms],t des (GluA1) [ms],Amplitude (glutamate plus TC compound) (GluA1/2) [pA],"Amplitude, applying glutamate alone after TC compound (GluA1/2) [pA]",IC50 (GluA1/2) [µM],A/AI (GluA1/2),t deact (GluA1/2) [ms],t des (GluA1/2) [ms],Amplitude (glutamate plus TC compound) (GluA2) [pA],"Amplitude, applying glutamate alone after TC compound (GluA2) [pA]",IC50 (GluA2) [µM],pIC50 (GluA2),t deact (GluA2) [ms],t des (GluA2) [ms],Amplitude (glutamate plus TC compound) (GluA2/3) [pA],"Amplitude, applying glutamate alone after TC compound (GluA2/3) [pA]",IC50 (GluA2/3) [µM],A/AI (GluA2/3),also measured
COc1ccc(-c2nc(C(=O)Nc3cc(OC)ccc3OC)cs2)cc1 [TC-5],177±33,3.55,5.5 ± 0.4,1.4 ± 0.1,123±20,553±89,3.47,4.80±0.07,5.6 ± 0.4,3.8 ± 0.3,250±35,1071±134,3.31,5.47,5.8 ± 0.3,1.2 ± 0.1,99±22,443±96,3.39,4.79±0.20,pIC50 (GluA1; [2]): 5.45; A/AI (GluA1; [3]): 4.67±0.10; pIC50 (GluA1/2; [2]): 5.46; pIC50 (GluA2/3; [2]): 5.47; t deact (GluA2/3): 5.7 ± 0.4 ms; t des (GluA2/3): 1.3 ± 0.2 ms; reduction in τw des [1]: roughly twofold; increase in τw deact [1]: around 2 fold; decrease in AMPAR subunit activity (inhibition of the whole-cell current) [1]: approximately 5 fold
COc1ccc(-c2nc(C(=O)Nc3cc(OC)c(OC)c(OC)c3)cs2)cc1 [TC-2],172±18,3.24,5.6 ± 0.3,1.1 ± 0.1,115±12,597±66,3.09,5.38±0.08,6.0 ± 0.5,3.7 ± 0.3,212±20,1131±105,3.02,5.52,6.3 ± 0.2,0.9 ± 0.1,94±14,484±68,3.02,5.33±0.23,"Amplitude, applying glutamate alone after TC compound (GluA1; 10 mM glutamate alone after 20 s wash following the TC compound, n = 10): 841±88 pA; pIC50 (GluA1): 5.49; pIC50 (GluA1/2): 5.51; A/AI (GluA2; [3]): 5.49±0.05; pIC50 (GluA2/3): 5.52; t deact (GluA2/3): 5.9 ± 0.4 ms; t des (GluA2/3): 1.0 ± 0.2 ms; reduction in τw des [1]: 2 to 3 fold; increase in τw deact [1]: ~2.5 fold; decrease in AMPAR subunit activity (inhibition of the whole-cell current) [1]: ~5.5 fold"
